SMILES strings stand for the structures. Read-outs that look alike come from different tables or passages of the source.

The subject of test [1] is UACC-257 cells. Briefly: Cell proliferation PAD assay, UACC-257. Format: cell-based. The following applies: Homo sapiens, UACC257 cells, 6pt, 48 hours. Here is the method:
(§1) Cell lines used are available from American Type Culture Collection (ATCC), for example, cell cultures containing A549 (ATCC# CCL-185), HeLa (ATCC# CCL-2), HCT116 ATTC# CCL-247), and H1299 (ATCC# CRL-5803) cells were maintained in T175 flasks following the ATCC recommended media and handling procedures. […] A 20,000 cells/ml solution was made for plating. Cells were plated in black Packard 96 well plates by placing 100 μl per well (2,000 cells per well). […] The definitions of the cell types used are as follows: A549 is lung carcinoma; HI 299 is non-small cell lung carcinoma; HI 155 is non-small cell lung carcinoma; AsPC-1 is pancreatic adenocarcinoma; Caov-3 is ovarian adenocarcinoma; COLO 205 is colorectal adenocarcinoma; DLD-1 colorectal adenocarcinoma; HCT116 is colorectal carcinoma; DU 145 is prostate carcinoma; ES-2 is ovarian clear cell carcinoma; H460 is large cell lung carcinoma; HELA is cervical adenocarcinoma; MIA PaCa-2 is pancreatice carcinoma; OVCAR-3 is ovarian adenocarcinoma; OVCAR8 is ovarian carcinoma; PC3 is prostate adenocarcinoma; SK-OV-3 is ovarian adenocarcinoma; SU86.86 is pancreatic carcinoma; TOV-21G is avarian clear cell carcinoma; U2OS is bone osteosarcoma; is ASPC-I is pancreatic adenocarcinoma; BXPC-3 is pabcreatic adenocarcinoma; HL60 is promyeloblast promyelocytic leukemia; K562 is bone marrow chronic myelogenous leukemia; L1210 is mouse lymphocytic leukemia; MOLT3 is T lymphoblast acute lymphoblastic leukemia; MOLT4 is T lymphoblast acute lymphoblastic leukemia; SW620 is colorectal adenocarcinoma; THP-1 is monocyte acute monocytic leukemia; U937 is histiocytic lymphoma; and UACC-257 is melanoma.
(§2) Compounds and additional media were added 24 hours after cell plating. […] All compound testing was done in duplicate using 6.3 fold dilutions starting with 10 mM. […] Taxol and at least one additional control were run on all plates. Three microliters of the compound master plate were added to deep well blocks containing 750 μl of RPMI media. One hundred microliters were transferred from the compound/media deep well blocks to the plated cells resulting in a 500 fold dilution of the compounds. Cells were grown at 37° C., 5% CO2 for 48 hours.
(§3) Cells to be analyzed by photography were fixed and stained. One hundred microliters of media were removed and 100 μl of 9.3% formamide was added to each well. Plates were left on the benchtop for 45 minutes. A staining solution containing 1.55 μl of 1 mg/ml DAPI added to 18.75 ml PBS was warmed for 15 minutes at 37° C. The cells were aspirated prior to washing with 100 μl of PBS. Seventy microliters of PBS were aspirated and 170 μl of the DAPI solution were added to each well of fixed cells. Plates were left at room temperature for one hour then aspirated and washed twice with 100 μl of PBS. The stained cells were left at 4° C. for a minimum of 16 hours before photographic analysis with Array Scan II (Cellomics). Analysis of the photographic images to determine numbers of live cells (proliferation), apoptotic cells and dead cells, were according to the methods described in U.S. Utility patent application Ser. No. 10/652,440, which incorporated herein in its entirety.

In test [2] the target is T1, TRAF6/Uev1A/Ubc13 (Homo sapiens, UniProt Q9Y4K3).
T1 sequence (Q9Y4K3 1-522): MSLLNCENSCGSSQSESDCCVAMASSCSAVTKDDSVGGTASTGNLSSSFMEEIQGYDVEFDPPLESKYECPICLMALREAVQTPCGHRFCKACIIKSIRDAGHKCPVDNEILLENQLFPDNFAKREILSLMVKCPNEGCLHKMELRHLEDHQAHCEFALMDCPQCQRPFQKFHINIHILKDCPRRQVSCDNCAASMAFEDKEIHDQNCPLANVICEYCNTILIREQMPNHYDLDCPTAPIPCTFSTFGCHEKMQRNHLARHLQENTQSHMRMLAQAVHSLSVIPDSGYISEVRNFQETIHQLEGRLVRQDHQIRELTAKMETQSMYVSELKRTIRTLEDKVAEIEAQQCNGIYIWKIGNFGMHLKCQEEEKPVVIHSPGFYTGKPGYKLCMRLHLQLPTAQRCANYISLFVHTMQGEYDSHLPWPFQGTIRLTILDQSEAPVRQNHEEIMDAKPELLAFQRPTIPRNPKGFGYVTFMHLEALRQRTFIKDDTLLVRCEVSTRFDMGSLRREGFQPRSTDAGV
Briefly: TRAF6/Uev1A/Ubc13 plate-based ubiquitin ligase assay. The class given is biochemical. A digest of the protocol: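 Ligase activity was read as luminescence from anti-Flag/HRP detection of Flag-ubiquitin bound to casein-blocked Ni-plates alongside His-ubiquitin after a 1 h room-temperature reaction. Buffer: 62.5 mM Tris pH 7.5, 6.25 mM MgCl2, 1.0 mM DTT, 2 μM ATP; E1, Uev1a/Ubc13 and TRAF6 added last to start. IC50s derived across compound concentrations.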

Test [3] relates to H1299 cells. As to the kind of experiment: Cell proliferation PAD assay, H1299. The class given is cell-based. The following applies: Homo sapiens, 48 hours. A digest of the protocol: (§4)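 2,000 cells/well; compound added at 24 h (duplicate, 6.3-fold series, 10 mM stock, 500× dilution into wells); 48 h, 37 °C/5% CO2. Formamide fix, DAPI stain, image-based counts of live (proliferation), apoptotic, dead cells.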

The subject of test [4] is OVCAR8 cells. As to the kind of experiment: Cell proliferation PAD assay, OVCAR8. The class given is cell-based. The conditions noted are these: Homo sapiens, OVCAR-8, 6pt, 48 hours. The procedure:
as §1, §2, §3

For test [5], the system named is A549 cells. As to the kind of experiment: Cell proliferation PAD assay, A549. The following applies: Homo sapiens, 48 hours. Format: cell-based. A digest of the protocol:
as §4

The test system of test [6] is HELA cells. Briefly: Cell proliferation PAD assay, HeLa. Format: cell-based. The conditions noted are these: Homo sapiens, 6pt, 48 hours.
From the text: (§5) Table 3 illustrates the inhibitory activity of the compounds of the invention determined by the PAD assay described above in a number of cell types. Apoptosis was not
as §1
(§6) Compounds and additional media were added 24 hours after cell plating. A compound master plate was created with concentrations 500 times greater than the final concentration added to the cells. All compound testing was done in duplicate using 6.3 fold dilutions starting with 10 mM. All outside wells (and 4 internal wells) were DMSO controls. Taxol and at least one additional control were run on all plates. Three microliters of the compound master plate were added to deep well blocks containing 750 μl of RPMI media. One hundred microliters were transferred from the compound/media deep well blocks to the plated cells resulting in a 500 fold dilution of the compounds. Cells were grown at 37° C., 5% CO2 for 48 hours.
as §3

Test [7] concerns DLD-1 cells. As to the kind of experiment: Cell proliferation PAD assay, DLD-1. The class given is cell-based. The conditions noted are these: Homo sapiens, DLD1 cells, 6pt, 48 hours.
From the text: as §5, §1, §6, §3

Test [8] has as its system U2OS cells. Briefly: Cell proliferation PAD assay, U2OS. The class given is cell-based. The following applies: Homo sapiens, 6pt, 48 hours.
From the text: as §5, §1, §6, §3

In test [9] the test system is HCT116 cells. As to the kind of experiment: Cell proliferation PAD assay, HCT116. Format: cell-based. The following applies: Homo sapiens, HCT-116, 6pt, 48 hours, read-out: HCT116 6pt.
From the text: as §5, §1, §6, §3

Where [10] appears, read: NCI-H1299, 3pt, read-out: H1299 3pt.
The mark [11] stands for this setting: NCI-H1299, 6pt, read-out: H1299 6pt.

In the case of `COC(=O)c1ccc(Nc2ccc(S(=O)(=O)Nc3ccc(C(=O)OC)cc3)c3nonc23)cc1` [compound 9, Methyl 4-{[(7-{[4-(methoxycarbonyl)phenyl]amino}-2,1,3-benzoxadiazol-4-yl)sulfonyl]amino}benzoate], the IC50 in [1] was at least 20 µM; in test [2] it was at least 20 µM; in test [3] (setting [10]), at least 20 µM; in test [3] (setting [11]) it was at least 20 µM; in test [4] it was at least 20 µM; in [5] (3pt, read-out: A549 3pt), at least 20 µM. The IC50 in test [5] (6pt, read-out: A549 6pt) fell in the range of 1 to 20 µM.

With `COc1ccccc1NS(=O)(=O)c1cccc2nonc12` [compound 11, N-(2-methoxyphenyl)-2,1,3-benzoxadiazole-4-sulfonamide], the IC50 was at least 20 µM in test [1]; 1 to 20 µM in test [2]; at least 20 µM in test [3] (setting [10]); at least 20 µM in test [4]; at least 20 µM in test [5] (3pt, read-out: A549 3pt).

As to `O=S(=O)(Nc1ccncc1)c1ccc2nonc2c1` [compound 26, N-pyridin-4-yl-2,1,3-benzoxadiazole-5-sulfonamide], the IC50 in test [1] is at least 20 µM; in [3] (setting [10]), at least 20 µM; in test [4], at least 20 µM; in test [5] (3pt, read-out: A549 3pt), at least 20 µM.

For the compound `O=S(=O)(Nc1cccc2cccnc12)c1cccc2nonc12` [compound 64, N-quinolin-8-yl-2,1,3-benzoxadiazole-4-sulfonamide], the IC50 in [6] was 1 to 20 µM; in test [7], under 1 µM; in test [8], under 1 µM; in [3] (setting [10]), 1 to 20 µM; in test [3] (setting [11]), under 1 µM; in test [5] (3pt, read-out: A549 3pt) it was 1 to 20 µM. The IC50 was under 1 µM in [5] (6pt, read-out: A549 6pt) and 1 to 20 µM in test [9].

For `O=[N+]([O-])c1cc(Cl)c(Oc2ccc(S(=O)(=O)Nc3cccc4nonc34)cc2Cl)c(Cl)c1` [compound 79, N-2,1,3-benzoxadiazol-4-yl-3-chloro-4-(2,6-dichloro-4-nitrophenoxy)benzenesulfonamide], the IC50 in [1] is at least 20 µM; in test [2], 1 to 20 µM; in test [3] (setting [10]) it was 1 to 20 µM; in [3] (setting [11]), 1 to 20 µM; in test [4], 1 to 20 µM; in test [5] (3pt, read-out: A549 3pt), 1 to 20 µM. In addition, the IC50 in test [5] (6pt, read-out: A549 6pt) fell in the range of 1 to 20 µM.

In the case of `O=C(CN1CCN(c2ccc([N+](=O)[O-])c3nonc23)CC1)N1CCOCC1` [compound 107, 4-[4-(2-morpholin-4-yl-2-oxoethyl)piperazin-1-yl]-7-nitro-2,1,3-benzoxadiazole], the IC50 is at least 20 µM in test [1]; at least 20 µM in [2]; at least 20 µM in [3] (setting [10]); at least 20 µM in test [3] (setting [11]); at least 20 µM in [4]; at least 20 µM in test [5] (3pt, read-out: A549 3pt). Further, the IC50 in test [5] (6pt, read-out: A549 6pt) was at least 20 µM.

Take `O=S(=O)(c1ccc(F)c2nonc12)N1CCN(c2ncc(C(F)(F)F)cc2Cl)CC1` [compound 164, 4-({4-[3-chloro-5-(trifluoromethyl)pyridin-2-yl]piperazin-1-yl}sulfonyl)-7-fluoro-2,1,3-benzoxadiazole]: the IC50 in [2] is under 1 µM; in [8], at least 20 µM; in [3] (setting [10]) it was 1 to 20 µM; in test [3] (setting [11]), 1 to 20 µM; in test [5] (3pt, read-out: A549 3pt), 1 to 20 µM; in test [5] (6pt, read-out: A549 6pt) it was 1 to 20 µM.

On to `O=S(=O)(c1ccc(Cl)c2nonc12)N1CCN(c2ncc(C(F)(F)F)cc2Cl)CC1` [compound 169, 4-chloro-7-({4-[3-chloro-5-(trifluoromethyl)pyridin-2-yl]piperazin-1-yl}sulfonyl)-2,1,3-benzoxadiazole], for which the IC50 is 1 to 20 µM in test [2]; under 1 µM in test [8]; at least 20 µM in test [3] (setting [10]); under 1 µM in test [3] (setting [11]); at least 20 µM in [5] (3pt, read-out: A549 3pt); 1 to 20 µM in test [5] (6pt, read-out: A549 6pt).

Take `Cc1cccc(N2CCN(S(=O)(=O)c3ccc(Cl)c4nonc34)CC2)n1` [compound 194, 4-chloro-7-{[4-(6-methylpyridin-2-yl)piperazin-1-yl]sulfonyl}-2,1,3-benzoxadiazole]: the IC50 is at least 20 µM in test [2]; under 1 µM in test [8]; 1 to 20 µM in test [3] (setting [10]); at least 20 µM in test [3] (setting [11]); at least 20 µM in test [5] (3pt, read-out: A549 3pt); at least 20 µM in [5] (6pt, read-out: A549 6pt).

`CC1CN(S(=O)(=O)c2c(Cl)ccc3nonc23)CC(C)O1` (centres unmarked) [compound 204, 5-chloro-4-[(2,6-dimethylmorpholin-4-yl)sulfonyl]-2,1,3-benzoxadiazole]: the IC50 was 1 to 20 µM in [6]; at least 20 µM in [2]; under 1 µM in test [7]; under 1 µM in test [8]; under 1 µM in test [3] (setting [10]); under 1 µM in test [3] (setting [11]). Moreover, the IC50 in test [5] (3pt, read-out: A549 3pt) is 1 to 20 µM; in test [5] (6pt, read-out: A549 6pt), at least 20 µM; in [9], 1 to 20 µM.

With `O=S(=O)(Nc1ccc2[nH]ncc2c1)c1ccc(Cl)c2nonc12` [compound 218, 7-chloro-N-1H-indazol-5-yl-2,1,3-benzoxadiazole-4-sulfonamide], the IC50 is 1 to 20 µM in test [6]; at least 20 µM in test [2]; 1 to 20 µM in test [7]; 1 to 20 µM in test [8]; 1 to 20 µM in [3] (setting [10]); 1 to 20 µM in test [3] (setting [11]). In addition, the IC50 in test [5] (3pt, read-out: A549 3pt) was at least 20 µM; in test [5] (6pt, read-out: A549 6pt), at least 20 µM; in test [9], 1 to 20 µM.

The values are drawn from US20050282818A1, “Ubiquitin ligase inhibitors” (Rigel Pharmaceuticals, Inc., priority 2004, published 2005).
